Measured values: patent publication US20240270762A1, “PENICILLIN-BINDING PROTEIN INHIBITORS” (priority 2021, published 2024)
Values after ≈ are worked out from the molar mass of the structure shown.

Assays:
N. gonorrhoeae WHO K = experiment: Liquid broth MIC in Fastidious broth; conditions: Neisseria gonorrhoeae, read-out: Minimum Inhibitory Concentration, WHO K
N. gonorrhoeae WHO Q = experiment: Liquid broth MIC in Fastidious broth; conditions: Neisseria gonorrhoeae, read-out: Minimum Inhibitory Concentration, WHO Q
P. aeruginosa CDC-0054 = experiment: microbe, parasite or virus in culture; type: cell-based; conditions: Pseudomonas aeruginosa, CDC0054, read-out: Minimum inhibitory concentration, P. aeruginosa CDC-0054
[1] = tested on: P. aeruginosa (ΔmexAB-oprM); experiment: Broth microdilution MIC in iron-depleted CAMHB (IDM); type: cell-based; conditions: Pseudomonas aeruginosa; iron-depleted CAMHB (IDM); […]; read-out: Minimum inhibitory concentration, P. aeruginosa ΔmexAB-oprM
P. aeruginosa CDC-0090 = experiment: microbe, parasite or virus in culture; type: cell-based; conditions: Pseudomonas aeruginosa, CDC0090, read-out: Minimum inhibitory concentration, P. aeruginosa CDC-0090
[2] = tested on: B. thailandensis ATCC 700388; experiment: microbe, parasite or virus in culture; type: cell-based; conditions: Burkholderia thailandensis, ATCC700388, read-out: Minimum inhibitory concentration (MIC), B. thailandensis ATCC 700388
[3] = tested on: B. humptydooensis ATCC BAA-2767; experiment: microbe, parasite or virus in culture; type: cell-based; conditions: Burkholderia humptydooensis, ATCCBAA2767, read-out: Minimum inhibitory concentration (MIC), B. humptydooensis ATCC BAA-2767
[4] = target: T1, PBP3 from Escherichia coli (K-12) (Escherichia coli, UniProt P0AD68); experiment: Bocillin-FL fluorescence polarization competition binding, E. coli PBP3
T1 construct: made in house
T1 sequence (P0AD68 1-577): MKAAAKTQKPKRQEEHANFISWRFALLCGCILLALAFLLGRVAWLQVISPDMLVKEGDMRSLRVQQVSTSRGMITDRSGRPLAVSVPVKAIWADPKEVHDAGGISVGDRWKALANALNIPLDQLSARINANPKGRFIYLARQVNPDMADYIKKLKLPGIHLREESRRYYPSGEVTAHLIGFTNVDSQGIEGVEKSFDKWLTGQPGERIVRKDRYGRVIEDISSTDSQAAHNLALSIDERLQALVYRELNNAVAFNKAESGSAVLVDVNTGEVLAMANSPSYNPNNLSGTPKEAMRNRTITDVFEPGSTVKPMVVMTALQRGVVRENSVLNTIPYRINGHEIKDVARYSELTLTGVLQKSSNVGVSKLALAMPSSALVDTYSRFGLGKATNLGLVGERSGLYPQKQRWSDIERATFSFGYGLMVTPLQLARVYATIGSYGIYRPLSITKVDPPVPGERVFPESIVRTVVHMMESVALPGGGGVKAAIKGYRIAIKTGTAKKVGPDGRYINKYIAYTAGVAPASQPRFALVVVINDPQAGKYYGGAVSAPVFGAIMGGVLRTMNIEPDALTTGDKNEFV
In short: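 Purified PBPs pre-incubated with inhibitor (E. coli PBP3 1.5 μM, 30 min; P. aeruginosa PBP3 0.75 μM, A. baumannii PBP1a 1 μM and PBP3 0.2 μM, 15 min), then Bocillin-FL 0.1 μM (0.05 μM for PBP1a) added; FP read up to 60 min. EC50 = concentration halving bound Bocillin-FL.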

N. gonorrhoeae WHO L = experiment: Liquid broth MIC in Fastidious broth; conditions: Neisseria gonorrhoeae, read-out: Minimum Inhibitory Concentration, WHO L
A. baumannii CDC-0045 = experiment: microbe, parasite or virus in culture; type: cell-based; conditions: Acinetobacter baumannii, CDC0045, read-out: MIC, A. baumannii CDC-0045

Row | SMILES | MIC (N. gonorrhoeae WHO K) [µg/mL] | MIC (N. gonorrhoeae WHO Q) [µg/mL] | MIC (P. aeruginosa CDC-0054) [µg/mL] | MIC [1] [µg/mL] | MIC (P. aeruginosa CDC-0090) [µg/mL] | MIC [2] [µg/mL] | MIC [3] [µg/mL] | EC50 [4] [µM] | MIC (N. gonorrhoeae WHO L) [µg/mL] | MIC (A. baumannii CDC-0045) [µg/mL]
1 | O=C(NCCN1CCN(C(=O)NC(C(=O)N[C@H]2Cc3ccc(F)c(C(=O)O)c3OB2O)c2cc(F)c(O)c(O)c2Cl)C1=O)Nc1ccncc1 (stereo partly drawn) [Example 250, (3R)-3-(2-(2-chloro-5-fluoro-3,4-dihydroxyphenyl)-2-(2-oxo-3-(2-(3-(pyridin-4-yl)ureido)ethyl)imidazolidine-1-carboxamido)acetamido)-7-fluoro-2-hydroxy-3,4-dihydro-2H-benzo[e][1,2]oxaborinine-8-carboxylic acid] | > 64 | > 64 | 8 to 16 (≈ 11.1 to 22.3 µM) | < 1 | 2 to 4 (≈ 2.79 to 5.57 µM) | > 128 | < 1 | < 10 | > 64 | < 1
2 | O=C(NCCN1CCN(C(=O)NC(C(=O)N[C@H]2Cc3ccc(F)c(C(=O)O)c3OB2O)c2cc(F)c(O)c(O)c2Cl)C1=O)Nc1cccnc1 (stereo partly drawn) [Example 251, (3R)-3-(2-(2-chloro-5-fluoro-3,4-dihydroxyphenyl)-2-(2-oxo-3-(2-(3-(pyridin-3-yl)ureido)ethyl)imidazolidine-1-carboxamido)acetamido)-7-fluoro-2-hydroxy-3,4-dihydro-2H-benzo[e][1,2]oxaborinine-8-carboxylic acid] | > 64 | > 64 | 8 to 16 (≈ 11.1 to 22.3 µM) | < 1 | 2 to 4 (≈ 2.79 to 5.57 µM) | < 1 | < 1 | < 10 | > 64 | < 1
3 | O=C(NCCCN1CCN(C(=O)N[C@H](C(=O)N[C@H]2Cc3ccc(F)c(C(=O)O)c3OB2O)c2cc(F)c(O)c(O)c2Cl)C1=O)c1ccccc1 [Example 252, (R)-3-((S)-2-(3-(3-benzamidopropyl)-2-oxoimidazolidine-1-carboxamido)-2-(2-chloro-5-fluoro-3,4-dihydroxyphenyl)acetamido)-7-fluoro-2-hydroxy-3,4-dihydro-2H-benzo[e][1,2]oxaborinine-8-carboxylic acid] | > 64 | > 64 | > 128 | > 128 | > 128 | > 128 | > 128 | > 250 | > 64 | > 128
4 | O=C(NCCCN1CCN(C(=O)N[C@H](C(=O)N[C@H]2Cc3ccc(F)c(C(=O)O)c3OB2O)c2cc(F)c(O)c(O)c2Cl)C1=O)c1cccc(O)c1 [Example 254, (R)-3-((S)-2-(2-chloro-5-fluoro-3,4-dihydroxyphenyl)-2-(3-(3-(3-hydroxybenzamido)propyl)-2-oxoimidazolidine-1-carboxamido)acetamido)-7-fluoro-2-hydroxy-3,4-dihydro-2H-benzo[e][1,2]oxaborinine-8-carboxylic acid] | > 64 | > 64 | > 128 | > 128 | > 128 | > 128 | > 128 | 50 to 250 | > 64 | > 128
5 | O=C(NCCCN1CCN(C(=O)N[C@@H](C(=O)N[C@H]2Cc3ccc(F)c(C(=O)O)c3OB2O)c2cc(F)c(O)c(O)c2Cl)C1=O)c1cccc(O)c1 [Example 255, (R)-3-((R)-2-(2-chloro-5-fluoro-3,4-dihydroxyphenyl)-2-(3-(3-(3-hydroxybenzamido)propyl)-2-oxoimidazolidine-1-carboxamido)acetamido)-7-fluoro-2-hydroxy-3,4-dihydro-2H-benzo[e][1,2]oxaborinine-8-carboxylic acid] | > 64 | 16 to 32 (≈ 21.9 to 43.7 µM) | < 1 | < 1 | < 1 | < 1 | < 1 | < 10 | > 64 | < 1
6 | O=C(NCCCN1CCN(C(=O)NC(C(=O)N[C@H]2Cc3ccc(F)c(C(=O)O)c3OB2O)c2cc(F)c(O)c(O)c2Cl)C1=O)c1ccncc1 (stereo partly drawn) [Example 256, (3R)-3-(2-(2-chloro-5-fluoro-3,4-dihydroxyphenyl)-2-(3-(3-(isonicotinamido)propyl)-2-oxoimidazolidine-1-carboxamido)acetamido)-7-fluoro-2-hydroxy-3,4-dihydro-2H-benzo[e][1,2]oxaborinine-8-carboxylic acid] | > 64 | > 64 | 2 to 4 (≈ 2.79 to 5.58 µM) | < 1 | 2 to 4 (≈ 2.79 to 5.58 µM) | < 1 | < 1 | 10 to 50 | > 64 | < 1
7 | O=C(NCCCN1CCN(C(=O)NC(C(=O)N[C@H]2Cc3ccc(F)c(C(=O)O)c3OB2O)c2cc(F)c(O)c(O)c2Cl)C1=O)c1nccs1 (stereo partly drawn) [Example 257, (3R)-3-(2-(2-chloro-5-fluoro-3,4-dihydroxyphenyl)-2-(2-oxo-3-(3-(thiazole-2-carboxamido)propyl)imidazolidine-1-carboxamido)acetamido)-7-fluoro-2-hydroxy-3,4-dihydro-2H-benzo[e][1,2]oxaborinine-8-carboxylic acid] | > 64 | > 64 | 2 to 4 (≈ 2.77 to 5.53 µM) | < 1 | 2 to 4 (≈ 2.77 to 5.53 µM) | < 1 | 2 to 4 (≈ 2.77 to 5.53 µM) | 10 to 50 | > 64 | < 1
8 | O=C(NCCCN1CCN(C(=O)N[C@@H](C(=O)N[C@H]2Cc3ccc(F)c(C(=O)O)c3OB2O)c2cc(F)c(O)c(O)c2Cl)C1=O)Nc1cccc(O)c1 [Example 258, (R)-3-((R)-2-(2-chloro-5-fluoro-3,4-dihydroxyphenyl)-2-(3-(3-(3-(3-hydroxyphenyl)ureido)propyl)-2-oxoimidazolidine-1-carboxamido)acetamido)-7-fluoro-2-hydroxy-3,4-dihydro-2H-benzo[e][1,2]oxaborinine-8-carboxylic acid] | > 64 | 16 to 32 (≈ 21.4 to 42.8 µM) | < 1 | < 1 | < 1 | < 1 | < 1 | < 10 | > 64 | < 1
9 | O=C(NCCCN1CCN(C(=O)NC(C(=O)N[C@H]2Cc3ccc(F)c(C(=O)O)c3OB2O)c2cc(F)c(O)c(O)c2Cl)C1=O)Nc1cccnc1 (stereo partly drawn) [Example 259, (3R)-3-(2-(2-chloro-5-fluoro-3,4-dihydroxyphenyl)-2-(2-oxo-3-(3-(3-(pyridin-3-yl)ureido)propyl)imidazolidine-1-carboxamido)acetamido)-7-fluoro-2-hydroxy-3,4-dihydro-2H-benzo[e][1,2]oxaborinine-8-carboxylic acid] | > 64 | 16 to 32 (≈ 21.9 to 43.7 µM) | 2 to 4 (≈ 2.73 to 5.47 µM) | < 1 | < 1 | < 1 | < 1 | < 10 | > 64 | < 1
10 | O=C(NCCS(=O)(=O)N1CCN(C(=O)NC(C(=O)N[C@H]2Cc3ccc(F)c(C(=O)O)c3OB2O)c2cc(F)c(O)c(O)c2Cl)C1=O)c1cccc(O)c1 (stereo partly drawn) [Example 261, (3R)-3-(2-(2-chloro-5-fluoro-3,4-dihydroxyphenyl)-2-(3-((2-(3-hydroxybenzamido)ethyl)sulfonyl)-2-oxoimidazolidine-1-carboxamido)acetamido)-7-fluoro-2-hydroxy-3,4-dihydro-2H-benzo[e][1,2]oxaborinine-8-carboxylic acid] | > 64 | 16 to 32 (≈ 20.5 to 40.9 µM) | 2 to 4 (≈ 2.56 to 5.12 µM) | < 1 | 2 to 4 (≈ 2.56 to 5.12 µM) | 2 to 4 (≈ 2.56 to 5.12 µM) | 2 to 4 (≈ 2.56 to 5.12 µM) | < 10 | > 64 | < 1
11 | O=C(NCCS(=O)(=O)N1CCN(C(=O)NC(C(=O)N[C@H]2Cc3ccc(F)c(C(=O)O)c3OB2O)c2cc(F)c(O)c(O)c2Cl)C1=O)c1cccnc1 (stereo partly drawn) [Example 262, (3R)-3-(2-(2-chloro-5-fluoro-3,4-dihydroxyphenyl)-2-(3-((2-(nicotinamido)ethyl)sulfonyl)-2-oxoimidazolidine-1-carboxamido)acetamido)-7-fluoro-2-hydroxy-3,4-dihydro-2H-benzo[e][1,2]oxaborinine-8-carboxylic acid] | > 64 | 16 to 32 (≈ 20.9 to 41.7 µM) | 2 to 4 (≈ 2.61 to 5.22 µM) | < 1 | < 1 | < 1 | < 1 | < 10 | > 64 | < 1
